Literature values in US20020016334A1, “Pharmaceutical composition for the treatment of attention deficit hyperactivity disorder (ADHD)” (priority 2000, published 2002).

Assays:
[1] = system: clinical ADHD symptoms; settings: humans (Levin et al. 1996)
[2] = system: performance on serial choice tasks; settings: animal studies (Muir et al. 1995)
[3] = system: working memory deficits; settings: brain-lesioned rats (Levin et al. 1993)

CN1CCCC1c1cccnc1 (stereo not drawn) [nicotine]
Effect on clinical ADHD symptoms by Clinical Global Impression scale [1]: significantly improves
Effect on performance on serial choice tasks [2]: improves performance
Effect on deficits in working memory [3]: reverse deficits in working memory
